This note sets out measurements from patent publication US20090030024A1, “THIAZOLES AS FUNGICIDES” (priority 2005, published 2009).

Marks after values point to notes of the source that are not given here.

The first data set is described as follows: logP determination by retention times (calibration with alkan-2-ones).
Settings: not given
With `COc1ccc(Nc2nccc(-c3sc(C4CC4)nc3C)n2)cn1` [Example 228, 4-(2-cyclopropyl-4-methyl-1,3-thiazol-5-yl)-N-(6-methoxypyridin-3-yl)pyrimidine-2-amine], the chromatographic logP turned out to be 2.53.

Take `Cc1nc(C2CC2)sc1-c1ccnc(Nc2cccc(C(F)(F)F)c2)n1` [Example 229, 4-(2-cyclopropyl-4-methyl-1,3-thiazol-5-yl)-N-[3-(trifluoromethyl)phenyl]pyrimidine-2-amine]: the chromatographic logP worked out at 4.04.

In the case of `Cc1nc(C2CC2)sc1-c1ccnc(Nc2ccc(C(F)(F)F)cc2)n1` [Example 230, 4-(2-cyclopropyl-4-methyl-1,3-thiazol-5-yl)-N-[4-(trifluoromethyl)phenyl]pyrimidine-2-amine], the chromatographic logP was 4.2.

On to `Cc1nc(C2CC2)sc1-c1ccnc(Nc2ccccc2)n1` [Example 231, 4-(2-cyclopropyl-4-methyl-1,3-thiazol-5-yl)-N-phenylpyrimidine-2-amine], for which the chromatographic logP came to 3.26.

Take `CCc1nc(C)c(-c2ccnc(Nc3cccc(OC)c3)n2)s1` [Example 236, 4-(2-ethyl-4-methyl-1,3-thiazol-5-yl)-N-(3-methoxyphenyl)pyrimidine-2-amine]: the chromatographic logP worked out at 3.

In turn, `CCc1nc(C)c(-c2ccnc(Nc3cccc([N+](=O)[O-])c3)n2)s1` [Example 237, 4-(2-ethyl-4-methyl-1,3-thiazol-5-yl)-N-(3-nitrophenyl)pyrimidine-2-amine] came in with a chromatographic logP of 3.14.

Take `CCc1nc(C)c(-c2ccnc(Nc3cccc(C(F)(F)F)c3)n2)s1` [Example 241, 4-(2-ethyl-4-methyl-1,3-thiazol-5-yl)-N-[3-(trifluoromethyl)phenyl]pyrimidine-2-amine]: the chromatographic logP was determined as 3.85.

Regarding `COc1cccc(Nc2nccc(-c3sc(C(C)C)nc3C)n2)c1` [Example 245, 4-(2-isopropyl-4-methyl-1,3-thiazol-5-yl)-N-(3-methoxyphenyl)pyrimidine-2-amine], the chromatographic logP is 3.5.

`Cc1nc(C(C)C)sc1-c1ccnc(Nc2cccc([N+](=O)[O-])c2)n1` [Example 246, 4-(2-isopropyl-4-methyl-1,3-thiazol-5-yl)-N-(3-nitrophenyl)pyrimidine-2-amine] displayed a chromatographic logP of 3.55.

Compound `Cc1nc(C(C)C)sc1-c1ccnc(Nc2cccc(C(F)(F)F)c2)n1` [Example 248, 4-(2-isopropyl-4-methyl-1,3-thiazol-5-yl)-N-[3-(trifluoromethyl)phenyl]pyrimidine-2-amine] came in with a chromatographic logP of 4.3.

Take `Cc1nc(C(C)C)sc1-c1ccnc(Nc2ccc(N3CCN(C)CC3)cc2)n1` [Example 249, 4-(2-isopropyl-4-methyl-1,3-thiazol-5-yl)-N-[4-(4-methylpiperazin-1-yl)phenyl]pyrimidine-2-amine]: the chromatographic logP was found to be 1.71.

In turn, `Cc1ncsc1-c1ccnc(Nc2cccc(C(F)(F)F)c2)n1` [Example 267, 4-(4-methyl-1,3-thiazol-5-yl)-N-[3-(trifluoromethyl)phenyl]pyrimidine-2-amine] gave a chromatographic logP of 3.14.

`COCC(C)Nc1nc(C)c(-c2ccnc(Nc3ccc(O)cc3)n2)s1` (centres unmarked) [Example 284, 4-[(4-{2-[(2-methoxy-1-methylethyl)amino]-4-methyl-1,3-thiazol-5-yl}pyrimidin-2-yl)amino]phenol] gave a chromatographic logP of 1.4.

Take `COCc1nc(C)c(-c2ccnc(Nc3cc(OC)c(OC)c(OC)c3)n2)s1` [Example 295, 4-[2-(methoxymethyl)-4-methyl-1,3-thiazol-5-yl]-N-(3,4,5-trimethoxyphenyl)pyrimidine-2-amine]: the chromatographic logP came out at 2.36.

With `COCc1nc(C)c(-c2ccnc(Nc3cccc(OC)c3)n2)s1` [Example 296, 4-[2-(methoxymethyl)-4-methyl-1,3-thiazol-5-yl]-N-(3-methoxyphenyl)pyrimidine-2-amine], the chromatographic logP was determined as 2.67.

For the compound `COCc1nc(C)c(-c2ccnc(Nc3ccc(OC)nc3)n2)s1` [Example 298, 4-[2-(methoxymethyl)-4-methyl-1,3-thiazol-5-yl]-N-(6-methoxypyridin-3-yl)pyrimidine-2-amine], the chromatographic logP was determined as 2.13.

For the compound `COCc1nc(C)c(-c2ccnc(Nc3cccc(C(F)(F)F)c3)n2)s1` [Example 299, 4-[2-(methoxymethyl)-4-methyl-1,3-thiazol-5-yl]-N-[3-(trifluoromethyl)phenyl]pyrimidine-2-amine], the chromatographic logP is 3.41.

Turning to `COCc1nc(C)c(-c2ccnc(Nc3ccc(C(F)(F)F)cc3)n2)s1` [Example 300, 4-[2-(methoxymethyl)-4-methyl-1,3-thiazol-5-yl]-N-[4-(trifluoromethyl)phenyl]pyrimidine-2-amine], the chromatographic logP is 3.59.

`COCc1nc(C)c(-c2ccnc(Nc3ccccc3)n2)s1` [Example 301, 4-[2-(methoxymethyl)-4-methyl-1,3-thiazol-5-yl]-N-phenylpyrimidine-2-amine]: the chromatographic logP is 3.01.

As for `COc1cc(Nc2nccc(-c3sc(C)nc3C(F)(F)F)n2)cc(OC)c1OC` [Example 310, 4-[2-methyl-4-(trifluoromethyl)-1,3-thiazol-5-yl]-N-(3,4,5-trimethoxyphenyl)pyrimidine-2-amine], the chromatographic logP came out at 3.02.

As to `Cc1nc(C(F)(F)F)c(-c2ccnc(Nc3cccc([N+](=O)[O-])c3)n2)s1` [Example 311, 4-[2-methyl-4-(trifluoromethyl)-1,3-thiazol-5-yl]-N-(3-nitrophenyl)pyrimidine-2-amine], the chromatographic logP is 3.5.

`Cc1nc(C(F)(F)F)c(-c2ccnc(Nc3ccccc3)n2)s1` [Example 312, 4-[2-methyl-4-(trifluoromethyl)-1,3-thiazol-5-yl]-N-phenylpyrimidine-2-amine] came in with a chromatographic logP of 3.45.

Compound `COc1cc(Nc2nccc(-c3sc(SC)nc3C)n2)cc(OC)c1OC` [Example 316, 4-[4-methyl-2-(methylthio)-1,3-thiazol-5-yl]-N-(3,4,5-trimethoxyphenyl)pyrimidine-2-amine] gave a chromatographic logP of 2.76.

`CSc1nc(C)c(-c2ccnc(Nc3ccc(C(F)(F)F)cc3)n2)s1` [Example 317, 4-[4-methyl-2-(methylthio)-1,3-thiazol-5-yl]-N-[4-(trifluoromethyl)phenyl]pyrimidine-2-amine] returned a chromatographic logP of 4.37.

On to `CSc1nc(C)c(-c2ccnc(Nc3ccccc3)n2)s1` [Example 318, 4-[4-methyl-2-(methylthio)-1,3-thiazol-5-yl]-N-phenylpyrimidine-2-amine], for which the chromatographic logP was 3.34.

For `Cc1nc(N)sc1-c1ccnc(Nc2ccc(O)cc2)n1` [Example 323, 4-{[4-(2-amino-4-methyl-1,3-thiazol-5-yl)pyrimidin-2-yl]amino}phenol], the chromatographic logP is 0.93.

The compound `CCc1nc(C)c(-c2ccnc(Nc3ccc(C(=O)O)cc3)n2)s1` [Example 325, 4-{[4-(2-ethyl-4-methyl-1,3-thiazol-5-yl)pyrimidin-2-yl]amino}benzoic acid] had a chromatographic logP of 2.16.

The compound `COCC(C)Nc1nc(C)c(-c2ccnc(Nc3cc(OC)c(OC)c(OC)c3)n2)s1` (centres unmarked) [Example 332, 4-{2-[(2-methoxy-1-methylethyl)amino]-4-methyl-1,3-thiazol-5-yl}-N-(3,4,5-trimethoxyphenyl)pyrimidine-2-amine] displayed a chromatographic logP of 1.85.

As to `COCC(C)Nc1nc(C)c(-c2ccnc(Nc3cccc(OC)c3)n2)s1` (centres unmarked) [Example 333, 4-{2-[(2-methoxy-1-methylethyl)amino]-4-methyl-1,3-thiazol-5-yl}-N-(3-methoxyphenyl)pyrimidine-2-amine], the chromatographic logP was found to be 2.03.

On to `COCC(C)Nc1nc(C)c(-c2ccnc(Nc3cccc([N+](=O)[O-])c3)n2)s1` (centres unmarked) [Example 334, 4-{2-[(2-methoxy-1-methylethyl)amino]-4-methyl-1,3-thiazol-5-yl}-N-(3-nitrophenyl)pyrimidine-2-amine], for which the chromatographic logP was 2.2.

In turn, `Cc1nc(N(C)C2CC2)sc1-c1ccnc(Nc2ccccc2)n1` [Example 341, 4-{2-[cyclopropyl(methyl)amino]-4-methyl-1,3-thiazol-5-yl}-N-phenylpyrimidine-2-amine] registered a chromatographic logP of 2.43.

Staying with this data set, now noted: HPLC, reversed-phase C 18, EEC Directive 79/831 Annex V.A8; method *: 40° C., 0.1% aqueous formic acid and acetonitrile, linear gradient 10% to 95% acetonitrile.
As for `Cc1nc2c(s1)-c1nc(Nc3ccc(O)cc3)ncc1CC2` [Example 281, 4-[(2-methyl-4,5-dihydro[1,3]thiazole[4,5-h]quinazolin-8-yl)amino]phenol], the logP is recorded as 1.41*.

For the compound `COc1cc(Nc2nccc(-c3sc(N(C)C)nc3C(F)(F)F)n2)cc(OC)c1OC` [Example 291, 4-[2-(dimethylamine)-4-(trifluoromethyl)-1,3-thiazol-5-yl]-N-(3,4,5-trimethoxyphenyl)pyrimidine-2-amine], the logP is on record as 3.43*.

On to `CN(C)c1nc(C(F)(F)F)c(-c2ccnc(Nc3ccccc3)n2)s1` [Example 292, 4-[2-(dimethylamine)-4-(trifluoromethyl)-1,3-thiazol-5-yl]-N-phenylpyrimidine-2-amine], for which the logP was 3.88*.

For the compound `COc1cccc(Nc2nccc(-c3sc(N(C)C)nc3C)n2)c1` [Example 293, 4-[2-(dimethylamine)-4-methyl-1,3-thiazol-5-yl]-N-(3-methoxyphenyl)pyrimidine-2-amine], the logP is on record as 1.98*.

As for `Cc1cc(Nc2nccc(-c3sc(N(C)C)nc3C)n2)ccc1F` [Example 294, 4-[2-(dimethylamine)-4-methyl-1,3-thiazol-5-yl]-N-(4-fluoro-3-methylphenyl)pyrimidine-2-amine], the logP is on record as 2.22*.

For `CNc1nc(C)c(-c2ccnc(Nc3cc(OC)c(OC)c(OC)c3)n2)s1` [Example 313, 4-[4-methyl-2-(methylamine)-1,3-thiazol-5-yl]-N-(3,4,5-trimethoxyphenyl)pyrimidine-2-amine], the logP is listed as 1.53*.

For `CNc1nc(C)c(-c2ccnc(Nc3ccccc3)n2)s1` [Example 315, 4-[4-methyl-2-(methylamine)-1,3-thiazol-5-yl]-N-phenylpyrimidine-2-amine], the logP is 1.61*.
